Source: PubChem BioAssay AID2060505 (Molecular Pharmacology Branch, DTP, NCI, 2025)

Tested on: 633275-114-R-J1-PDC complex spheroids, viability
Assay: Anticancer human tumor 633275-114-R-J1-PDC patient-derived endometrial adenocarcinoma cell line growth inhibition [GQUAD]
Conditions: for IC50: curve of first compound; for viability, T/C: stronger effect = lower value
Method in brief: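 Multi-cell-type spheroids of tumor cells with HUVEC and mesenchymal stem cells, treated with drug combinations. Concentrations descend in half-log steps from near clinical Cmax, or from 10 microM where Cmax is unknown; viability read-out.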

[1] = second compound 0.0316 µM, first compound 0.0316 µM
[2] = second compound 0.0316 µM, first compound 0.1 µM
[3] = second compound 0.0316 µM, first compound 0.316 µM
[4] = second compound 0.0316 µM, first compound 1 µM
[5] = second compound 0.0316 µM, first compound 3.16 µM
[6] = second compound 0.0316 µM, first compound 10 µM
[7] = second compound 0.1 µM, first compound 0.0316 µM
[8] = second compound 0.1 µM, first compound 0.1 µM
[9] = second compound 0.1 µM, first compound 0.316 µM
[10] = second compound 0.1 µM, first compound 1 µM
[11] = second compound 0.1 µM, first compound 3.16 µM
[12] = second compound 0.1 µM, first compound 10 µM
[13] = second compound 0.316 µM, first compound 0.0316 µM
[14] = second compound 0.316 µM, first compound 0.1 µM
[15] = second compound 0.316 µM, first compound 0.316 µM
[16] = second compound 0.316 µM, first compound 1 µM
[17] = second compound 0.316 µM, first compound 3.16 µM
[18] = second compound 0.316 µM, first compound 10 µM
[19] = second compound 1 µM, first compound 0.0316 µM
[20] = second compound 1 µM, first compound 0.1 µM
[21] = second compound 1 µM, first compound 0.316 µM
[22] = second compound 1 µM, first compound 1 µM
[23] = second compound 1 µM, first compound 3.16 µM
[24] = second compound 1 µM, first compound 10 µM
[25] = second compound 3.16 µM, first compound 0.0316 µM
[26] = second compound 3.16 µM, first compound 0.1 µM
[27] = second compound 3.16 µM, first compound 0.316 µM
[28] = second compound 3.16 µM, first compound 1 µM
[29] = second compound 3.16 µM, first compound 3.16 µM
[30] = second compound 3.16 µM, first compound 10 µM
[31] = second compound 10 µM, first compound 0.0316 µM
[32] = second compound 10 µM, first compound 0.1 µM
[33] = second compound 10 µM, first compound 0.316 µM
[34] = second compound 10 µM, first compound 1 µM
[35] = second compound 10 µM, first compound 3.16 µM
[36] = second compound 10 µM, first compound 10 µM
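Note: spheroids exposed to the agents for seven days.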
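Throughout, for viability, T/C: percent of DMSO vehicle control viability which is 100%.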

COc1cccc2c1C(=O)c1c(O)c3c(c(O)c1C2=O)CC(O)(C(=O)CO)CC3OC1CC(N)C(O)C(C)O1 (stereo unspecified) + Cc1cnc(CNC(=O)c2c(=O)c3ccc(N4CCCN(C)CC4)nc3n3c2sc2ccccc23)cn1
IC50 (second compound 0.0316 µM): < 31.6 nM | IC50 (second compound 0.1 µM): < 31.6 nM | IC50 (second compound 0.316 µM): < 31.6 nM | IC50 (second compound 1 µM): < 31.6 nM | IC50 (second compound 3.16 µM): < 31.6 nM | IC50 (second compound 10 µM): < 31.6 nM | viability, T/C [1]: 47.7% | viability, T/C [2]: 44.6% | viability, T/C [3]: 34.8% | viability, T/C [4]: 19.2% | viability, T/C [5]: 1.21% | viability, T/C [6]: 1.57% | viability, T/C [7]: 47.7% | viability, T/C [8]: 43.1% | viability, T/C [9]: 33.9% | viability, T/C [10]: 19.1% | viability, T/C [11]: 0.53% | viability, T/C [12]: 1.49% | viability, T/C [13]: 44.1% | viability, T/C [14]: 39.7% | viability, T/C [15]: 30.2% | viability, T/C [16]: 14.3% | viability, T/C [17]: 0.1% | viability, T/C [18]: 1.32% | viability, T/C [19]: 41.4% | viability, T/C [20]: 35.2% | viability, T/C [21]: 30.6% | viability, T/C [22]: 16% | viability, T/C [23]: 0.1% | viability, T/C [24]: 0.65% | viability, T/C [25]: 33.8% | viability, T/C [26]: 32.2% | viability, T/C [27]: 25.4% | viability, T/C [28]: 11.2% | viability, T/C [29]: 0.14% | viability, T/C [30]: 0.46% | viability, T/C [31]: 31% | viability, T/C [32]: 28.8% | viability, T/C [33]: 24.5% | viability, T/C [34]: 4.52% | viability, T/C [35]: 0.19% | viability, T/C [36]: 0.43%

Cc1cccc(N(C)C(=O)C2C(O)CCN2c2nc(C)cc(C(F)(F)F)c2C#N)c1 (stereo unspecified) + Cc1cnc(CNC(=O)c2c(=O)c3ccc(N4CCCN(C)CC4)nc3n3c2sc2ccccc23)cn1
IC50 (second compound 0.0316 µM): > 10000 nM | IC50 (second compound 0.1 µM): 814 nM | IC50 (second compound 0.316 µM): < 31.6 nM | IC50 (second compound 1 µM): < 31.6 nM | IC50 (second compound 3.16 µM): < 31.6 nM | IC50 (second compound 10 µM): < 31.6 nM | viability, T/C [1]: 66.2% | viability, T/C [2]: 64.1% | viability, T/C [3]: 59.2% | viability, T/C [4]: 65% | viability, T/C [5]: 60.5% | viability, T/C [6]: 67.8% | viability, T/C [7]: 55.1% | viability, T/C [8]: 52% | viability, T/C [9]: 53.7% | viability, T/C [10]: 48.3% | viability, T/C [11]: 47.5% | viability, T/C [12]: 46.8% | viability, T/C [13]: 40% | viability, T/C [14]: 41.5% | viability, T/C [15]: 46% | viability, T/C [16]: 50.9% | viability, T/C [17]: 43.4% | viability, T/C [18]: 44.5% | viability, T/C [19]: 41.2% | viability, T/C [20]: 42.1% | viability, T/C [21]: 41.4% | viability, T/C [22]: 39.9% | viability, T/C [23]: 37.3% | viability, T/C [24]: 37.7% | viability, T/C [25]: 36.3% | viability, T/C [26]: 35% | viability, T/C [27]: 32.1% | viability, T/C [28]: 33.5% | viability, T/C [29]: 37.2% | viability, T/C [30]: 35% | viability, T/C [31]: 27.2% | viability, T/C [32]: 33.9% | viability, T/C [33]: 27.9% | viability, T/C [34]: 31.4% | viability, T/C [35]: 34.2% | viability, T/C [36]: 24.2%

Cn1ncnc1[C@H]1c2n[nH]c(=O)c3cc(F)cc(c23)N[C@@H]1c1ccc(F)cc1 + Cc1cnc(CNC(=O)c2c(=O)c3ccc(N4CCCN(C)CC4)nc3n3c2sc2ccccc23)cn1
IC50 (second compound 0.0316 µM): 114 nM | IC50 (second compound 0.1 µM): < 0.999 nM | IC50 (second compound 0.316 µM): < 0.999 nM | IC50 (second compound 1 µM): < 0.999 nM | IC50 (second compound 3.16 µM): < 0.999 nM | IC50 (second compound 10 µM): < 0.999 nM | viability, T/C (second compound 0.0316 µM, first compound 0.000999 µM): 64% | viability, T/C (second compound 0.0316 µM, first compound 0.00316 µM): 63.3% | viability, T/C (second compound 0.0316 µM, first compound 0.00999 µM): 63.2% | viability, T/C [1]: 58.9% | viability, T/C (second compound 0.0316 µM, first compound 0.0999 µM): 46.5% | viability, T/C [3]: 44.3% | viability, T/C (second compound 0.1 µM, first compound 0.000999 µM): 47.9% | viability, T/C (second compound 0.1 µM, first compound 0.00316 µM): 51.3% | viability, T/C (second compound 0.1 µM, first compound 0.00999 µM): 50.2% | viability, T/C [7]: 42.2% | viability, T/C (second compound 0.1 µM, first compound 0.0999 µM): 39.3% | viability, T/C [9]: 38.2% | viability, T/C (second compound 0.316 µM, first compound 0.000999 µM): 41.9% | viability, T/C (second compound 0.316 µM, first compound 0.00316 µM): 43.7% | viability, T/C (second compound 0.316 µM, first compound 0.00999 µM): 43.2% | viability, T/C [13]: 37.7% | viability, T/C (second compound 0.316 µM, first compound 0.0999 µM): 37.6% | viability, T/C [15]: 34.8% | viability, T/C (second compound 1 µM, first compound 0.000999 µM): 39.1% | viability, T/C (second compound 1 µM, first compound 0.00316 µM): 37.4% | viability, T/C (second compound 1 µM, first compound 0.00999 µM): 37.9% | viability, T/C [19]: 35% | viability, T/C (second compound 1 µM, first compound 0.0999 µM): 34% | viability, T/C [21]: 34% | viability, T/C (second compound 3.16 µM, first compound 0.000999 µM): 31.8% | viability, T/C (second compound 3.16 µM, first compound 0.00316 µM): 38.6% | viability, T/C (second compound 3.16 µM, first compound 0.00999 µM): 36.6% | viability, T/C [25]: 36.7% | viability, T/C (second compound 3.16 µM, first compound 0.0999 µM): 29.4% | viability, T/C [27]: 29.8% | viability, T/C (second compound 10 µM, first compound 0.000999 µM): 32.8% | viability, T/C (second compound 10 µM, first compound 0.00316 µM): 31% | viability, T/C (second compound 10 µM, first compound 0.00999 µM): 28.4% | viability, T/C [31]: 30.9% | viability, T/C (second compound 10 µM, first compound 0.0999 µM): 28.9% | viability, T/C [33]: 26.6%
